Assay results published in patent publication US20090280141A1, “Streptococcal Genes” (priority 2000, published 2009).

B1: Sit1D: Protein encoded by S. pneumoniae gene Sit1D (SEQ ID NO. 8), putative iron-binding lipoprotein; His-tagged, expressed in E. coli (protein, listed as Salmonella pneumoniae)
chain: MKTSLKLYFTALVASFLLLLGACSTNSSTSQTETSSSAPTEVTIKSSLDEVKLSKVPEKIVTFDLGAADTIRALGFEKNIVGMPTKTVPTYLKDLVGTVKNVGSMKEPDLEAIAALEPDLIIASPRTQKFVDKFKEIAPTVLFQASKDDYWTSTKANIESLASAFGETGTQKAKEELTKLDKSIQEVATKNESSDKKALAILLNEGKMAAFGAKSRFSFLYQTLKFKPTDTKFEDSRHGQEVSFESVKEINPDILFVINRTLAIGGDNSSNDGVLENALIAETPAAKNGKIIQLTPDLWYLSGGGLESTKLMIEDIQKALK
modifications: His tag; CDS (1)..(966)
notes: His-tagged, expressed in E. coli

Legend:
S. pneumoniae strains [1] = assay: Streptonigrin bacterial survival assay; format: cell-based; settings: 60 minutes incubation with 2.5 μg ml^-1 streptonigrin
Protocol: (§1) For bacterial survival streptonigrin assays, stocks of S. pneumoniae strains grown in Chelex-THY broth and stored at −70° C. were defrosted on ice, pelleted by centrifugation at 20000 g at 4° C. and resuspended in THY to which 2.5 μg ml^−1 of streptonigrin (Sigma) was then added. The reactions were incubated at 37° C., and aliquots of the reaction cultures taken at 40 and 60 minutes after adding streptonigrin were diluted and plated. Cfu at each time point were expressed as a percentage of the cfu prior to adding streptonigrin and the results presented as a ratio of the wild-type strain's results. To assess sensitivity to streptonigrin discs, S. pneumoniae strain stocks cultured in Chelex-THY broth were plated on RPMIm plates with or without 50 μM FeCl3 and 400 μM DIP supplementation at a density of several thousand colonies per plate. Antibiotic discs impregnated with 5 μg streptonigrin were placed onto the plates. After incubation for 20 hours at 37° C. in 5% CO2, the width of the zone of growth inhibition surrounding each disc was measured and confidence intervals for three separate results calculated.

S. pneumoniae strains [2] = assay: Streptonigrin disc sensitivity (zone of growth inhibition); format: cell-based
Protocol: as §1

S. pneumoniae = assay: Sit1D and Sit2A immunisation experiment with IP S. pneumoniae challenge; format: in vivo; settings: BALBc mice, 10 ug protein IP three times, challenged IP with 10,000 S. pneumoniae cells
Protocol: BALBc were mice given 10 ug of protein (expressed in pQE30 expression vectors in E. coli and purified using the His-tag) via IP, on three occasions separated by 7-10 days, and then challenged 2 weeks after the last immunisation with 10,000 S. pneumoniae cells inoculated IP.
The other proteins were Sit1D, Sit2A, Sit1D combined with Sit2A, Sit1D combined with Pdb, and Sit2A combined with Pbd.

Molecule	fold more cells surviving than wild type cells (S. pneumoniae strains [1]; Sit1A- strain)	fold more cells surviving than wild type cells (S. pneumoniae strains [1]; Sit1A-/Sit2A- strain) [fold]	fold more cells surviving than wild type cells (S. pneumoniae strains [1]; Sit2A- strain)	sensitivity to 5 ug streptonigrin discs (S. pneumoniae strains [2]; Sit1A-/Sit2A- double mutant, in the presence of 400 μM DIP)	zone of growth inhibition surrounding a streptonigrin disc, versus wild-type strain (S. pneumoniae strains [2]; Sit- strains on RPMIm plates)	protection against S. pneumoniae challenge (survival, FIG. 7) (S. pneumoniae)
COC1=C(N)C(=O)c2nc(-c3nc(C(=O)O)c(C)c(-c4ccc(OC)c(OC)c4O)c3N)ccc2C1=O [streptonigrin]	Approximately 10 fold	~1000	Approximately 10 fold	completely resistant	smaller	
B1						as protective as Pdb
